In US20240294509A1, “PYRIDAZINONE COMPOUND AS PARP7 INHIBITOR” (Euregen Biopharma Co., Ltd., priority 2021, published 2024):

Experiments:
[1] = biological target: PARP7 (Homo sapiens (Human), UniProt Q7Z3E1)
Method: (§5) Experimental Principle: The inhibitory effect of the test substance on the enzymatic activity of PARP1/7 is assessed by using an Enzyme-Linked Immunosorbent Assay (ELISA).
(§6) (1) Pre-coating: Add 100 μL of a PBS buffer (10 mM NaH2PO4, 10 mM Na2HPO4, 150 mM NaCl, pH 7.4) containing 20 g/mL of histone to each well of a 96-well plate, and incubate at 4° C. overnight.
(§7) (3) Add 5 μL of the test substance or solvent to each well.
(§8) (4) Add 20 μL of(PARP1 or PARP7 (50 ng/well), and incubate at 30° C. for 1 hour.
(§9) (5) Add 50 μL of streptavidin-HRP to the reaction mixture, and incubate at 30° C. for 30 minutes.
(§10) (6) Finally, add 100 μL of a citrate buffer containing H2O2 and luminol (0.1 M, pH 5.4), and measure the luminescent signal using a microplate reader (Molecular Devices SpectraMax M5).
(§11) (7) Calculate the inhibition rate of PARP1 or PARP7 enzyme activity as [(control group−treatment group)/control group]×10000. Fit the dose-response data with standard dilutions using Prism GraphPad software and calculate the concentration required to achieve 5000 inhibition of PARP1 or PARP7 enzyme activity (IC50).

[2] = biological target: PARP1 (Homo sapiens (Human), UniProt P09874)
Method: as §5, §6, §7, §8, §9, §10, §11

[3] = test system: NCI-H1373 cells; assay: Inhibitory effect on the proliferation of NCI-H1373 cells (CellTiter-Glo); assay type: cell-based; conditions: Homo sapiens, 144 h, 6 days treatment
Excerpt: 1. Experimental Principle: NCI-H1373 cells are a type of lung adenocarcinoma cells that overexpress PARP7.
2. Experimental Materials: NCI-H1373 cells were obtained from Nanjing Cobioer Biosciences Co., Ltd. CellTiter-Glo® (cell viability chemiluminescent assay reagent) was purchased from Promega (Catalog No. G7571). RPMI-1640 medium was obtained from ATCC (Catalog No. 30-2001). RPMI-1640 medium, penicillin/streptomycin antibiotics were purchased from WISENT. Fetal bovine serum was obtained from Biosera. The Nivo multimode reader was procured from PerkinElmer.
3. Experimental Method: NCI-H1373 cells were seeded in a white 96-well plate with 80 μL of cell suspension per well, containing 3000 NCI-H1373 cells. The cell plate was incubated overnight in a carbon dioxide (CO2) incubator.
The test compounds were serially diluted 5-fold to the 9th concentration, ranging from 2 mmol/L to 5.12 nmol/L, for a duplicate assay. 78 μL of culture medium was added to the intermediate plate, and then, according to the corresponding positions, 2 μL of each gradient-diluted compound was transferred to the intermediate plate. After thorough mixing, 20 μL of the compound solution was transferred to the cell plate. The compound concentration range in the cell plate ranged from 10 μmol/L to 0.0256 nmol/L. The cell plate was incubated in a CO2 incubator for 6 days.
Another cell plate was prepared, and the signal values were read on the day of dosing to obtain the maximum value referred to as Max in the following equation for data analysis. 25 μL of cell viability chemiluminescent assay reagent was added to each well of this cell plate, and it was incubated at room temperature for 10 minutes to stabilize the luminescent signal. Readings were taken using a multimode reader.
After 6 days of treatment, 25 μL of cell viability chemiluminescent assay reagent was added to each well of the cell plate, and it was incubated at room temperature for 10 minutes to stabilize the luminescent signal. Readings were taken using a multimode reader.
The IC50 value was determined by four-parameter curve fitting (obtained by using the “log(inhibitor) vs. response—Variable slope” model in GraphPad Prism).

[4] = Metabolic stability in dog liver microsomes; assay type: in vitro ADME; conditions: pH 7.4, 1.00 μM compound, 0.5 mg/mL protein, read-out: intrinsic clearance, Clint
Method: (§1) 1. Experiment purpose: This study aims to determine the metabolic stability of selected compounds from the embodiments of the invention in liver microsomes of humans, dogs, monkeys, rats, and mice using the LC-MS/MS method.
(§2) Test compounds: The test drug is self-made from the example compounds of the present invention; Positive control compound RBN2397 purchased from Shanghai BioChemPartner Biotechnology Co., Ltd.
(§3) Liver microsomes obtained from Xenotech.
(§4) The incubation was carried out at 37° C. in a CO2 incubator. The reactions were terminated by adding 150 μL of cold acetonitrile at different time points (0, 5, 15, 30, and 45 minutes). The 96-well plate was shaken at 600 rpm for 10 minutes, followed by centrifugation at 6000 rpm for 15 minutes. The supernatant (80 μL) was mixed with 140 μL of pure water, and the remaining amount of the compound was determined using LC-MS/MS. The intrinsic clearance (Clint) was calculated using the formula Clint=k/liver microsomes protein concentration, where “k” is the linear regression slope of log compound remaining percentage against incubation time.

[5] = Metabolic stability in rat liver microsomes; assay type: in vitro ADME; conditions: pH 7.4, 1.00 μM compound, 0.5 mg/mL protein, read-out: intrinsic clearance, Clint
Method: as §1, §2, §3, §4

[6] = Metabolic stability in human liver microsomes; assay type: in vitro ADME; conditions: pH 7.4, 1.00 μM compound, 0.5 mg/mL protein, read-out: intrinsic clearance, Clint
Method: as §1, §2, §3, §4

[7] = Pharmacokinetic properties in SD rats after single intravenous injection and oral administration; assay type: in vivo; conditions: SD male rats; for F: oral bioavailability; for AUC(0-inf) / Cmax / clearance / half-life: rat, plasma
Excerpt: 1. Test purpose: to determine the pharmacokinetic characteristics of some of the example compound of the present invention in SD rats after single intravenous injection(IV) and oral administration(PO) by LC-MS/MS method.
2. Test material: the test drug is self-made from the example compounds of the present invention; Positive control compound RBN2397 purchased from Shanghai BioChemPartner Biotechnology Co., Ltd. SD male rats were obtained from the Laboratory Animal Management Department of Shanghai Family Planning Research Institute. Animal production license number (SCXK (Shanghai) 2018-0006).
Preparation of 0.5% methyl cellulose: 5 g of methyl cellulose were weighed and dissolved in 1000 mL of purified water.
Preparation of oral formulation: A required amount of test compound was weighed and dissolved in 0.5% methyl cellulose solution to obtain a suspension or solution of 0.5 mg/mL or 1.0 mg/mL.
Preparation of intravenous injection formulation: A required amount of test compound was weighed, and dissolved in 0.5 mL of dimethyl sulfoxide to prepare a solution of 4 mg/mL. 0.25 mL of the above solution was added into 0.5 mL of polyethylene glycol 15 hydroxystearate (solutol) and 4.25 mL of physiological saline to obtain a solution of 0.2 mg/mL.
Administration: SD male rats were orally administered (PO) after fasting overnight, and fed 4 hours after administration.
Sample Collection: blood was collected through jugular vein or other suitable vein, and 0.2 mL of blood was collected at each time point. Samples were placed into tubes containing ethylenediamine tetraacetic acid dipotassium salt and kept on ice before centrifugation. Within 1 hour after blood collection, the blood samples were centrifuged at 2-8° C. and 6800 g for 6 minutes and stored at −80° C. The time point for blood collection was 0.083, 0.25, 0.5, 1, 2, 4, 8 and 24 hours after intravenous administration, and 0.25, 0.5, 1, 2, 4, 6, 8 and 24 hours after oral administration.
The intravenous dosage was 1 mg/kg, and the pharmacokinetic parameters for oral administration were standardized to a 1 mg/kg dose.

[8] = Oral gavage, standardized to a 1 mg/kg dose

Chain of PARP1 (P09874 whole entry): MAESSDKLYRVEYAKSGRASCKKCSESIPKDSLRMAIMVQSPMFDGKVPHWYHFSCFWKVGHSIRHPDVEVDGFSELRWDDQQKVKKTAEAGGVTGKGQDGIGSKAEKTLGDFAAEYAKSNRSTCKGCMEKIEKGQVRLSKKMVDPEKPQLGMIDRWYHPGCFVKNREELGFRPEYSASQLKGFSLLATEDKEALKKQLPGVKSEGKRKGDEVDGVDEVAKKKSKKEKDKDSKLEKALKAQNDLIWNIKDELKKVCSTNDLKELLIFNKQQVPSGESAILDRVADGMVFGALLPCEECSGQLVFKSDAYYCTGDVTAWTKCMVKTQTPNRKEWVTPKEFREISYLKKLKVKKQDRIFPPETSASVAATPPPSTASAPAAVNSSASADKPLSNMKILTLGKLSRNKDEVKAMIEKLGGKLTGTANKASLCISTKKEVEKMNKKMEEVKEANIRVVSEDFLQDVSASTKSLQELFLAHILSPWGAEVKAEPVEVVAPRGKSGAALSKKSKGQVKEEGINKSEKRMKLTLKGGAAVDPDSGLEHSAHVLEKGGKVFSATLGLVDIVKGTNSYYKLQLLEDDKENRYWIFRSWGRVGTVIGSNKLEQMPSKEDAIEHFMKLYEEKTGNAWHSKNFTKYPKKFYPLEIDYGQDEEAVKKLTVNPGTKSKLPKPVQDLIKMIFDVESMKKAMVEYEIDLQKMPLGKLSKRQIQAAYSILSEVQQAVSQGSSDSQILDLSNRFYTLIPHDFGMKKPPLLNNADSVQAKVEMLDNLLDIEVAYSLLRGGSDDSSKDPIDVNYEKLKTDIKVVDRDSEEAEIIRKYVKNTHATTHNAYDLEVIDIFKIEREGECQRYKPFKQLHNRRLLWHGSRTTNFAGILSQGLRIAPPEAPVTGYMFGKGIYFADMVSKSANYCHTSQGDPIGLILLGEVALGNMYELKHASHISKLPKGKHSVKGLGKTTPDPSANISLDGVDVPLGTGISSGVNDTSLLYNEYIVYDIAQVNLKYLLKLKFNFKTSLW
Chain of PARP7 (Q7Z3E1 whole entry): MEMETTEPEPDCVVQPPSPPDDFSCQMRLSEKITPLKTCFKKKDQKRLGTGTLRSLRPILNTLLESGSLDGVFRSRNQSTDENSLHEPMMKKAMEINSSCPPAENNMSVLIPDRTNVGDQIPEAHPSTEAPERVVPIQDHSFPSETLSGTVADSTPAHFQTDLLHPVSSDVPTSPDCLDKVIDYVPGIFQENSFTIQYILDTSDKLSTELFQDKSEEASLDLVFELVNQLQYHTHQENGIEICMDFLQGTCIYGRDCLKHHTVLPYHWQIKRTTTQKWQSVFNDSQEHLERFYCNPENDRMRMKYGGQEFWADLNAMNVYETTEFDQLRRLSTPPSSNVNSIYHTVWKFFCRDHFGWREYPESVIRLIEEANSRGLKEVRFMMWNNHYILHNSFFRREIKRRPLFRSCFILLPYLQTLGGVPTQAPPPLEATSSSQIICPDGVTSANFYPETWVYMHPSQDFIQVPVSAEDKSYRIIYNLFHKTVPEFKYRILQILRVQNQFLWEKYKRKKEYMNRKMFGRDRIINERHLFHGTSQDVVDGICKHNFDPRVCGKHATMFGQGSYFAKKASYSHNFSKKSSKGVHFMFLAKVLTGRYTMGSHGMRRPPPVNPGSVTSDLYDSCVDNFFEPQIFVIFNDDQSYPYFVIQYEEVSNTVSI

Q: With `CO[C@H]1C[C@@H](CCC(=O)N2CCN(c3ncc(C(F)(F)F)cn3)CC2)N(c2cc(C(F)(F)F)c(=O)[nH]n2)C1` [Compound 34] as the compound, how does the IC50 [1] read?
A: 3.3 nM

Q: And the IC50 [2]?
A: 13.6 nM

Q: With `O=C(CC[C@@H]1C[C@@H](F)CN1c1cc(C(F)(F)F)c(=O)[nH]n1)N1CCN(c2ncc(C(F)(F)F)cn2)CC1` [Compound 20] as the compound, how does the IC50 [3] read?
A: 12.4 nM

Q: And the CLint scaled at 1 μM [4]?
A: 28.7 mL/min/kg

Q: What about the CLint scaled at 1 μM [5] of the same compound?
A: 74.4 mL/min/kg

Q: What about the CLint scaled at 1 μM [6] of the same compound?
A: 46.6 mL/min/kg

Q: And the F ([7]; Oral gavage)?
A: 15.53%

Q: What about the AUC(0-inf) ([7]; Intravenous injection, 1 mg/kg) of the same compound?
A: 523 ng·h/mL

Q: What about the Cmax ([7]; Intravenous injection, 1 mg/kg) of the same compound?
A: 734 ng/mL

Q: And the clearance ([7]; Intravenous injection, 1 mg/kg)?
A: 32 mL/min/kg

Q: And the half-life ([7]; Intravenous injection, 1 mg/kg)?
A: 0.82 h

Q: What about the AUC(0-inf) [7, 8] of the same compound?
A: 94.4 ng·h/mL

Q: What about the Cmax [7, 8] of the same compound?
A: 15 ng/mL

Q: For `O=C(CC[C@H]1CCCN1c1cc(C(F)(F)F)c(=O)[nH]n1)N1CCN(c2ncc(C(F)(F)F)cn2)CC1` [Compound 18], which IC50 [1] is on record?
A: 2.2 nM

Q: What about the IC50 [2] of the same compound?
A: 2.5 nM

Q: Which IC50 [1] does the source give for `O=C(CC[C@@H]1C[C@H](N2CCCC2)CN1c1cc(C(F)(F)F)c(=O)[nH]n1)N1CCN(c2ncc(C(F)(F)F)cn2)CC1` [Compound 38] here?
A: 5 nM

Q: What about the IC50 [2] of the same compound?
A: 36 nM

Q: What does the source list for `O=C(CC[C@@H]1CCCCN1c1cc(C(F)(F)F)c(=O)[nH]n1)N1CCN(c2ncc(C(F)(F)F)cn2)CC1` [Compound 22]?
A: IC50 [1]: 4.6 nM; IC50 [2]: 31.6 nM

Q: Which IC50 [1] does the source give for `O=C([C@@H]1C[C@H](Oc2ccccc2)CN1c1cc(C(F)(F)F)c(=O)[nH]n1)N1CCN(c2ncc(C(F)(F)F)cn2)CC1` [Compound 66] here?
A: 4 nM

Q: And the IC50 [2]?
A: 427 nM

Q: What does the source list for `O=C(CC[C@@H]1CCCN1c1cc(C(F)(F)F)c(=O)[nH]n1)N1CCN(c2ncc(C(F)(F)F)cn2)CC1` [Compound 6]?
A: IC50 [3]: 10 nM; CLint scaled at 1 μM [4]: 31.6 mL/min/kg; CLint scaled at 1 μM [5]: 137 mL/min/kg; CLint scaled at 1 μM [6]: 64.6 mL/min/kg; F ([7]; Oral gavage): 18.1%; AUC(0-inf) ([7]; Intravenous injection, 1 mg/kg): 1380 ng·h/mL; Cmax ([7]; Intravenous injection, 1 mg/kg): 1950 ng/mL; clearance ([7]; Intravenous injection, 1 mg/kg): 12.2 mL/min/kg; half-life ([7]; Intravenous injection, 1 mg/kg): 1.43 h; AUC(0-inf) [7, 8]: 248 ng·h/mL; Cmax [7, 8]: 30.4 ng/mL

Q: Which IC50 [1] does the source give for `O=C([C@@H]1C[C@H](Oc2ccccc2F)CN1c1cc(C(F)(F)F)c(=O)[nH]n1)N1CCN(c2ncc(C(F)(F)F)cn2)CC1` [Compound 67] here?
A: 43 nM

Q: What about the IC50 [2] of the same compound?
A: 12000 nM

Q: Which results are given for `O=C(CC[C@@H]1C[C@H](N2CCOCC2)CN1c1cc(C(F)(F)F)c(=O)[nH]n1)N1CCN(c2ncc(C(F)(F)F)cn2)CC1` [Compound 35]?
A: IC50 [1]: 4.3 nM; IC50 [2]: 47 nM

Q: What does the source list for `N[C@H]1C[C@@H](CCC(=O)N2CCN(c3ncc(C(F)(F)F)cn3)CC2)N(c2cc(C(F)(F)F)c(=O)[nH]n2)C1` [Compound 42]?
A: IC50 [1]: 37 nM; IC50 [2]: 6 nM

Q: Which results are given for `C[C@H]1CC[C@@H](CCC(=O)N2CCN(c3ncc(C(F)(F)F)cn3)CC2)N1c1cc(C(F)(F)F)c(=O)[nH]n1` [Compound 39]?
A: IC50 [1]: 8 nM; IC50 [2]: 60 nM

Q: For `O=C(CC[C@@H]1C[C@@H](Oc2cc(F)cc(F)c2)CN1c1cc(C(F)(F)F)c(=O)[nH]n1)N1CCN(c2ncc(C(F)(F)F)cn2)CC1` [Compound 51], which IC50 [3] is on record?
A: 69.2 nM

Q: With `O=C(CC[C@@H]1C[C@H](F)CN1c1cc(C(F)(F)F)c(=O)[nH]n1)N1CCN(c2ncc(C(F)(F)F)cn2)CC1` [Compound 43] as the compound, how does the IC50 [1] read?
A: 4 nM

Q: What about the IC50 [2] of the same compound?
A: 4 nM

Q: What does the source list for `C[C@H]1CC(CCC(=O)N2CCN(c3ncc(C(F)(F)F)cn3)CC2)N(c2cc(C(F)(F)F)c(=O)[nH]n2)C1` (stereo partly drawn) [Compound 30]?
A: IC50 [1]: 5.1 nM; IC50 [2]: 7.6 nM
